Where two headings read alike, the source gives them in different places. Bridges are numbered along the chain shown (N, C = ends). Where no end group is shown, it is not given here.
Assays:
CXCR4 = assay: Competition with 12G5 anti-CXCR4 antibody binding (flow cytometry); set-up: species or system human; settings: CCRF-CEM cells, 10 µM peptide, 30 min pre-incubation at 37°C, PE-labelled 12G5, flow cytometry; at least three experiments
Description: (§1) CXCR4 binding was evaluated as previously described. Briefly 5×10^5 CCRF–CEM cells were pre-incubated with 10 µM peptides or AMD3100 in binding buffer (PBS 1× plus 0.2% BSA and 0.1% NaN3) for 30 minutes at 37°C, 5% CO2 and then labeled for 30 minutes with anti-CXCR4 PE-antibody (FAB170P, clone 12G5, R&D Systems, Minneapolis, MN, USA). The cells were analyzed by FACS Canto II cytofluorometer (Becton Dickinson Immunocytometry Systems, Mountain View, CA, USA).
(A) The amount of peptides or AMD3100 bound was assessed indirectly by flow cytometry using the PE-labelled anti-CXCR4 antibody (clone 12G5). Results are expressed as the percent antibody bound. (B) The Ca^2+ influx assay was performed using CCRF-CEM cells and Fluo-3 AM calcium indicator. CCRF-CEM cells were incubated 30 minutes at 37°C with Fluo-3 AM and 15 minutes with AMD3100 (10 µM)/peptides (10 µM) and then treated with CXCL12. Results are expressed as the percent of Fluo-3 AM fluorescence in presence of CXCL12 alone. Each peptide was tested in at least three different experiments. Double tailed T-Test was used for statistical analyses. Differences were considered significant at P<0.05 compared to control. Control (CTRL).

CXCR7 = assay: Anti-CXCR7 antibody (clone 11G8) binding in CXCR7 overexpressing cells; set-up: species or system human; settings: MCF-7 cells; peptides 10 µM, CXCL11 100 nM, 30 min pre-incubation; Figure S3
Description: [The procedure below names another target; the source says it served here with some conditions changed.] as §1
Fluo-3AM and Pluronic acid were added to each sample to increase Fluo-3AM solubility and improve dye loading into the cells. (TIF) Click here for additional data file.

[1] = test system: human cancer cell lines (SN12C, RXF393, A498 and PES43); assay: Cytotoxicity on human cancer cell lines; format: cell-based
[2] = test system: CCRF-CEM human T-Leukemia cells; assay: CCRF-CEM cell migration; format: cell-based; settings: Figure S4
Description: [The procedure below names another cell line; the source lists this cell line under the same test.] Migration was assayed in 24-well Transwell chambers (Corning Inc., Corning, NY) using inserts with an 8-µm pore membrane. Membranes were precoated with collagen (human collagen type I/III) and fibronectin (20 µg/mL each). PES43 cells were placed in the upper chamber (2.5×10^5 cells/well) in IMDM containing 1% BSA (migration media) in the presence of AMD3100 or peptides; 100 ng/mL CXCL12 was added to the lower chamber. After 16 h incubation, cells on the upper surface of the filter were removed using a cotton wool swab; migration of cells in migration media alone was compared with migration in media containing CXCL12. The cells were counted in ten different fields (original magnification ×40). The migration index was defined as the ratio between migrating cells in the experimental group and migrated cells in the control group. For the wound closure assay, tested cells were allowed to reach confluence in six-well plates containing serum-depleted growth medium and scratched with pipette tips to make wounds. The wound closure was observed microscopically 6 hours post-wounding (OKO Time Lapse).
(TIF) Click here for additional data file.

Arg-Ala-[Cys-Arg-His-Trp-Cys] (RACRHWC; disulfide 3-7) [Peptide S, CXCL12-mimetic disulfide-cyclic peptide]
association of the 12G5-CXCR4 antibody to the receptor (CXCR4): 17 % of control | binding to CXCR7 (anti-CXCR7 antibody) (CXCR7): unaffected | cytotoxicity [1]: no toxicity

[Cys-Trp-His-Arg-Cys] (CWHRC; disulfide 1-5) [Peptide I, v-MIP-II mimetic disulfide-cyclic peptide]
association of the 12G5-CXCR4 antibody to the receptor (CXCR4): 45 % of control | binding to CXCR7 (anti-CXCR7 antibody) (CXCR7): unaffected | cytotoxicity ([1]; SN12C, RXF393, A498 and PES43, Figure S2): no toxicity

Arg-Ala-[Cys-Arg-Phe-Phe-Cys] (RACRFFC; disulfide 3-7) [Peptide R, CXCL12-mimetic disulfide-cyclic peptide]
association of the 12G5-CXCR4 antibody to the receptor (CXCR4): 21 % of control | binding to CXCR7 (anti-CXCR7 antibody) (CXCR7): unaffected | CCRF-CEM migration [2]: inhibited CCRF-CEM human T-Leukemia cells migration in a dose-dependent manner | cytotoxicity [1]: no toxicity
